The values that follow are results of earlier work, collected in patent US20240299549A1, “STABLE FORMULATIONS OF INDOCYANINE GREEN” (PROVEPHARM LIFE SOLUTIONS, priority 2021, published 2024).

For data set [1] the following is noted: 10 hours of storage in water and direct light.
The conditions of data set [2]: stored at 4° C. in the dark, three days.

SMILES strings stand for the structures.

Consider `CC1(C)C(/C=C/C=C/C=C/C=C2\N(CCCCS(=O)(=O)[O-])c3ccc4ccccc4c3C2(C)C)=[N+](CCCCS(=O)(=O)[O-])c2ccc3ccccc3c21.[Na+]` [ICG, Indocyanine green], for which the “reduction of absorbance at spectral peak” value in data set [1] is on record as 10%. In data set [2], the fluorescence intensity lost is 20%.
